Where “and” joins values, the source holds several entries; their conditions need not be identical. Equal values may be shown once.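 GI50 marks 50% less growth. TGI is the concentration that stops growth completely.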
Columns and labels:
Assay in all cases: growth of human tumour cells (NCI), 384-well format
COLO 205 colon = test system: COLO 205 colon
TK-10 renal = test system: TK-10 renal
NCI-H322M lung = test system: NCI-H322M lung
BT-549 breast = test system: BT-549 breast
HOP-92 NSCLC = test system: HOP-92 NSCLC
DU-145 prostate = test system: DU-145 prostate
CCRF-CEM leukemia = test system: CCRF-CEM leukemia
HT29 colon = test system: HT29 colon
RPMI-8226 leukemia = test system: RPMI-8226 leukemia
OVCAR-5 ovarian = test system: OVCAR-5 ovarian
SNB-19 CNS = test system: SNB-19 CNS
HCT-15 colon = test system: HCT-15 colon
A498 renal = test system: A498 renal
SF-295 CNS = test system: SF-295 CNS
ACHN renal = test system: ACHN renal
LOX IMVI melanoma = test system: LOX IMVI melanoma
U251 glioblastoma = test system: U251 glioblastoma
MDA-MB-231 breast = test system: MDA-MB-231 breast
SF-539 CNS = test system: SF-539 CNS
IGROV1 ovarian = test system: IGROV1 ovarian
SK-MEL-5 melanoma = test system: SK-MEL-5 melanoma
EKVX NSCLC = test system: EKVX NSCLC
MDA-MB-435 melanoma = test system: MDA-MB-435 melanoma
NCI/ADR-RES ovarian = test system: NCI/ADR-RES ovarian
SN12C renal = test system: SN12C renal
HS 578T breast = test system: HS 578T breast
NCI-H522 lung = test system: NCI-H522 lung
UACC-257 melanoma = test system: UACC-257 melanoma
HCT-116 colon = test system: HCT-116 colon
UACC-62 melanoma = test system: UACC-62 melanoma
MALME-3M melanoma = test system: MALME-3M melanoma
HCC-2998 colon = test system: HCC-2998 colon
MOLT-4 leukemia = test system: MOLT-4 leukemia
K-562 leukemia = test system: K-562 leukemia
NCI-H23 lung = test system: NCI-H23 lung
NCI-H460 NSCLC = test system: NCI-H460 NSCLC
T-47D breast = test system: T-47D breast
KM12 colon = test system: KM12 colon
SF-268 CNS = test system: SF-268 CNS
NCI-H226 lung = test system: NCI-H226 lung
HOP-62 NSCLC = test system: HOP-62 NSCLC
M14 melanoma = test system: M14 melanoma
SNB-75 CNS = test system: SNB-75 CNS
A549 NSCLC = test system: A549 NSCLC
786-0 renal = test system: 786-0 renal
SK-OV-3 ovarian = test system: SK-OV-3 ovarian
RXF 393 renal = test system: RXF 393 renal
CAKI-1 renal = test system: CAKI-1 renal
OVCAR-3 ovarian = test system: OVCAR-3 ovarian
HL-60(TB) leukemia = test system: HL-60(TB) leukemia
SK-MEL-28 melanoma = test system: SK-MEL-28 melanoma
PC-3 prostate = test system: PC-3 prostate
MCF7 breast = test system: MCF7 breast
SW-620 colon = test system: SW-620 colon
OVCAR-8 ovarian = test system: OVCAR-8 ovarian
MDA-MB-468 breast = test system: MDA-MB-468 breast
OVCAR-4 ovarian = test system: OVCAR-4 ovarian
SR leukemia = test system: SR leukemia
SK-MEL-2 melanoma = test system: SK-MEL-2 melanoma

CNC(=O)c1cc(Oc2ccc(NC(=O)Nc3cc(C(C)(C)C)nn3-c3ccc4ncccc4c3)c(F)c2)ccn1
GI50 (COLO 205 colon): 0.391 µM
TGI (COLO 205 colon): 2.81 µM
GI50 (TK-10 renal): 1.21 µM
TGI (TK-10 renal): 4.4 µM
GI50 (NCI-H322M lung): 2.58 µM
TGI (NCI-H322M lung): 9.5 µM
GI50 (BT-549 breast): 0.632 µM
TGI (BT-549 breast): 1.88 µM
GI50 (HOP-92 NSCLC): 0.605 µM
TGI (HOP-92 NSCLC): > 100 µM
GI50 (DU-145 prostate): 2.22 µM
TGI (DU-145 prostate): 8.64 µM
GI50 (CCRF-CEM leukemia): 1.37 µM
TGI (CCRF-CEM leukemia): 2.76 µM
GI50 (HT29 colon): 0.52 µM
TGI (HT29 colon): > 100 µM
GI50 (RPMI-8226 leukemia): 1.91 µM
TGI (RPMI-8226 leukemia): 3.44 µM
GI50 (OVCAR-5 ovarian): 0.884 µM
TGI (OVCAR-5 ovarian): 58 µM
GI50 (SNB-19 CNS): 3.69 µM
TGI (SNB-19 CNS): > 100 µM
GI50 (HCT-15 colon): 2.34 µM
TGI (HCT-15 colon): 6.88 µM
GI50 (A498 renal): 2.41 µM
TGI (A498 renal): 9.32 µM
GI50 (SF-295 CNS): 2.21 µM
TGI (SF-295 CNS): > 100 µM
GI50 (ACHN renal): 0.446 µM
TGI (ACHN renal): 4.26 µM
GI50 (LOX IMVI melanoma): 0.281 µM
TGI (LOX IMVI melanoma): 0.961 µM
GI50 (U251 glioblastoma): 1.93 µM
TGI (U251 glioblastoma): 4.95 µM
GI50 (MDA-MB-231 breast): 0.558 µM
TGI (MDA-MB-231 breast): > 100 µM
GI50 (SF-539 CNS): 1.4 µM
TGI (SF-539 CNS): 2.73 µM
GI50 (IGROV1 ovarian): 0.442 µM
TGI (IGROV1 ovarian): 7.53 µM
GI50 (SK-MEL-5 melanoma): 0.552 µM
TGI (SK-MEL-5 melanoma): 1.83 µM
GI50 (EKVX NSCLC): 1.49 µM
TGI (EKVX NSCLC): 4.28 µM
GI50 (MDA-MB-435 melanoma): 0.477 µM
TGI (MDA-MB-435 melanoma): 1.7 µM
GI50 (NCI/ADR-RES ovarian): 2.53 µM
TGI (NCI/ADR-RES ovarian): 6.34 µM
GI50 (SN12C renal): 0.679 µM
TGI (SN12C renal): 4.18 µM
GI50 (HS 578T breast): 0.547 µM
TGI (HS 578T breast): 1.64 µM
GI50 (NCI-H522 lung): 1.45 µM
TGI (NCI-H522 lung): 3.01 µM
GI50 (UACC-257 melanoma): 0.358 µM
TGI (UACC-257 melanoma): 1.71 µM
GI50 (HCT-116 colon): 0.937 µM
TGI (HCT-116 colon): > 100 µM
GI50 (UACC-62 melanoma): 0.0328 µM
TGI (UACC-62 melanoma): 0.612 µM
GI50 (MALME-3M melanoma): 0.0343 µM
TGI (MALME-3M melanoma): 0.308 µM
GI50 (HCC-2998 colon): 2.14 µM
TGI (HCC-2998 colon): 4.73 µM
GI50 (MOLT-4 leukemia): 1.54 µM
TGI (MOLT-4 leukemia): 2.94 µM
TGI (K-562 leukemia): > 100 µM
GI50 (NCI-H23 lung): 0.49 µM
TGI (NCI-H23 lung): 1.58 µM
GI50 (NCI-H460 NSCLC): 1.16 µM
TGI (NCI-H460 NSCLC): 4.38 µM
GI50 (T-47D breast): 0.853 µM
TGI (T-47D breast): 4.82 µM
TGI (KM12 colon): 6.36 µM
GI50 (SF-268 CNS): 0.192 µM
TGI (SF-268 CNS): 0.752 µM
GI50 (NCI-H226 lung): 0.109 µM
TGI (NCI-H226 lung): > 100 µM
GI50 (HOP-62 NSCLC): 1.74 µM
TGI (HOP-62 NSCLC): 3.97 µM
GI50 (M14 melanoma): 0.0977 µM
TGI (M14 melanoma): 1.02 µM
GI50 (SNB-75 CNS): 1.07 µM
TGI (SNB-75 CNS): 2.28 µM
GI50 (A549 NSCLC): 1.18 µM
TGI (A549 NSCLC): 23.2 µM
GI50 ([…]-0 renal): 1.47 µM
TGI (786-0 renal): 5.19 µM
GI50 (SK-OV-3 ovarian): 1.05 µM
TGI (SK-OV-3 ovarian): > 100 µM
GI50 (RXF 393 renal): 0.499 µM
TGI (RXF 393 renal): 1.57 µM
GI50 (CAKI-1 renal): 0.359 µM
TGI (CAKI-1 renal): > 100 µM
GI50 (OVCAR-3 ovarian): 2.39 µM
TGI (OVCAR-3 ovarian): 5.22 µM
GI50 (HL-60(TB) leukemia): 0.724 µM
TGI (HL-60(TB) leukemia): 1.53 µM
GI50 (SK-MEL-28 melanoma): 0.31 µM
TGI (SK-MEL-28 melanoma): 1.2 µM
GI50 (PC-3 prostate): 3.16 µM
TGI (PC-3 prostate): 9.47 µM
GI50 (MCF7 breast): 1.59 µM
TGI (MCF7 breast): > 100 µM
GI50 (SW-620 colon): 2.74 µM
TGI (SW-620 colon): 5.71 µM
GI50 (OVCAR-8 ovarian): 1.74 µM
TGI (OVCAR-8 ovarian): 4.3 µM
GI50 (MDA-MB-468 breast): 2.82 µM
TGI (MDA-MB-468 breast): 4.37 µM
GI50 (OVCAR-4 ovarian): 2.18 µM
TGI (OVCAR-4 ovarian): 4.99 µM

CC(=O)c1c(C)c2cnc(Nc3ccc(N4CCNCC4)cn3)nc2n(C2CCCC2)c1=O
TGI (COLO 205 colon): 11 µM and > 100 µM
TGI (NCI-H322M lung): 14.5 µM and > 100 µM
TGI (BT-549 breast): 14.3 µM and > 100 µM
TGI (HOP-92 NSCLC): 15 µM and > 100 µM
TGI (DU-145 prostate): 14.6 µM and > 100 µM
GI50 (CCRF-CEM leukemia): 0.191 µM
TGI (CCRF-CEM leukemia): 5.34 µM
TGI (HT29 colon): 12.1 µM and > 100 µM
GI50 (RPMI-8226 leukemia): 0.422 µM
TGI (RPMI-8226 leukemia): > 100 µM
TGI (OVCAR-5 ovarian): 12 µM and > 100 µM
TGI (SNB-19 CNS): 13.9 µM and > 100 µM
TGI (A498 renal): 13.1 µM and > 100 µM
TGI (SF-295 CNS): 13.7 µM and > 100 µM
GI50 (ACHN renal): 0.976 µM and 3.18 µM
GI50 (LOX IMVI melanoma): 25.4 µM
TGI (LOX IMVI melanoma): > 100 µM
TGI (U251 glioblastoma): 12.2 µM and > 100 µM
TGI (MDA-MB-231 breast): 14.4 µM and > 100 µM
TGI (SF-539 CNS): 16.7 µM and > 100 µM
TGI (EKVX NSCLC): 15.4 µM and > 100 µM
TGI (MDA-MB-435 melanoma): 11.6 µM and > 100 µM
TGI (NCI/ADR-RES ovarian): 17.1 µM and > 100 µM
TGI (SN12C renal): 13.3 µM and > 100 µM
GI50 (HS 578T breast): 10.1 µM and > 100 µM
TGI (HS 578T breast): 17.2 µM and > 100 µM
TGI (NCI-H522 lung): 15 µM and > 100 µM
TGI (UACC-257 melanoma): 13.3 µM and > 100 µM
TGI (UACC-62 melanoma): 11.4 µM and > 100 µM
TGI (MALME-3M melanoma): 11.2 µM and > 100 µM
TGI (HCC-2998 colon): 10.9 µM and > 100 µM
GI50 (MOLT-4 leukemia): 0.121 µM and 0.123 µM
TGI (MOLT-4 leukemia): 5.1 µM and 4.65 µM
GI50 (K-562 leukemia): 2.64 µM
TGI (K-562 leukemia): 9.38 µM
TGI (NCI-H23 lung): 15.1 µM and > 100 µM
TGI (T-47D breast): 14.8 µM and > 100 µM
GI50 (KM12 colon): 0.713 µM and 0.388 µM
TGI (SF-268 CNS): 13 µM and > 100 µM
TGI (NCI-H226 lung): 13.1 µM and > 100 µM
TGI (HOP-62 NSCLC): 13.7 µM and > 100 µM
TGI (M14 melanoma): 11 µM and > 100 µM
GI50 (SR leukemia): 0.428 µM and 0.198 µM
TGI (SR leukemia): 3.83 µM and 0.634 µM
TGI (SNB-75 CNS): 14.2 µM and > 100 µM
GI50 (SK-MEL-2 melanoma): 9.24 µM
TGI (SK-MEL-2 melanoma): 16.2 µM
TGI (A549 NSCLC): 10.8 µM and > 100 µM
TGI (786-0 renal): 10.3 µM and > 100 µM
TGI (SK-OV-3 ovarian): 14.8 µM and > 100 µM
GI50 (RXF 393 renal): 11.4 µM and > 100 µM
TGI (RXF 393 renal): 18.7 µM and > 100 µM
GI50 (CAKI-1 renal): 0.686 µM and 0.698 µM
TGI (OVCAR-3 ovarian): 16.4 µM and > 100 µM
GI50 (HL-60(TB) leukemia): 0.0811 µM and 0.0379 µM
TGI (SK-MEL-28 melanoma): 13 µM and > 100 µM
TGI (PC-3 prostate): 15.4 µM and > 100 µM
TGI (OVCAR-8 ovarian): 16.4 µM and > 100 µM
TGI (MDA-MB-468 breast): 10.1 µM and > 100 µM
GI50 (OVCAR-4 ovarian): 11.2 µM and > 100 µM
TGI (OVCAR-4 ovarian): 18.6 µM and > 100 µM

— PubChem BioAssay (NCI)
